Test results from patent publication US8658698B2, “Insecticidal compounds” (Syngenta Crop Protection, LLC, priority 2008, dated 2014).

Tests used:
Assay type in all cases: in vivo
[1] = tested on: Spodoptera littoralis (Egyptian Cotton Leafworm); experiment: Spodoptera littoralis cotton leaf disc spray test; settings: same protocol, 200 ppm, 3 DAT
Protocol: (§1) This Example illustrates the pesticidal/insecticidal properties of compounds of formula (I). The tests were performed as follows:
Spodoptera littoralis (Egyptian Cotton Leafworm)
(§2) Cotton leaf discs were placed on agar in a 24-well microtiter plate and sprayed with test solutions at an application rate of 200 ppm. After drying, the leaf discs were infested with 5 L1 larvae. The samples were checked for mortality, feeding behavior, and growth regulation 3 days after treatment (DAT). The following compounds gave at least 80% control of Spodoptera littoralis: A2, A6, A8, A9, A10, A11, A13, A15, A19, A20, A22, A25, A27, A29, A31, A33, A35, A41, A50, A55, A60, A65, A73, A88, A92, and A94. Heliothis virescens (Tobacco Budworm): Eggs (0-24 h old) were placed in 24-well microtiter plate on artificial diet and treated with test solutions at an application rate of 200 ppm (concentration in well 18 ppm) by pipetting. After an incubation period of 4 days, samples were checked for egg mortality, larval mortality and growth regulation. The following compounds gave at least 80% control of Heliothis virescens: A2, A3, A4, A5, A6, A7, A9, A10, A11, A13, A15, A19, A20, A22, A25, A26, A27, A28, A29, A31, A32, A33, A35, A38, A40, A41, A43, A46, A55, A59, A60, A65, A69, A70, A71, A73, A74, A75, A77, A79, A80, A82, A86, A88, A89, A90, A92, A94, A96, A98, and A100. Plutella xylostella (Diamond Back Moth): A 24-well microtiter plate (MTP) with artificial diet was treated with test solutions at an application rate of 200 ppm (concentration in well 18 ppm) by pipetting. After drying, the MTP's were infested with L2 larvae (7-12 per well). After an incubation period of 6 days, samples were checked for larval mortality and growth regulation. The following compounds gave at least 80% control of Plutella xylostella: A3, A4, A5, A6, A7, A8, A10, A15, A16, A18, A19, A20, A22, A25, A26, A27, A28, A29, A31, A32, A33, A35, A38, A40, A55, A69, A71, A73, A74, A75, A76, A77, A78, A80, A82, A86, A87, A88, A89, A92, A94, A96, A97, A98, and A99. Diabrotica balteata (Corn Root Worm): A 24-well microtiter plate (MTP) with artificial diet was treated with test solutions at an application rate of 200 ppm (concentration in well 18 ppm) by pipetting. After drying, the MTP's were infested with larvae (L2) (6-10 per well). After an incubation period of 5 days, samples were checked for larval mortality, and growth regulation. The following compounds gave at least 80% control of Diabrotica balteata: A5, A6, A7, A14, A15, A18, A24, A35, A53, A55, A70, A71, A75, A79, A84, A85, A88, A92, A93, A95, A96, A97, A98, A99, A100, A101, A102, A103, and A104. Myzus persicae (Green Peach Aphid): Each well of a 24-well microtiter plate is filled with 0.6 ml 30% sucrose solution, containing 12.5 ppm of the test compounds. The wells are covered with streched parafilm and infested with a mixed population of Myzus persicae. After an incubation period of 6 days, samples are checked for mortality (feeding activity). The following compounds gave at least 80% control of Myzus persicae: A4, A6, A10, A11, A15, A19, A20, A24, A27, A29, A33, A34, A36, A37, A39, A40, A41, A42, A43, A44, A45, A46, A47, A48, A49, A55, A60, and A82. Tetranychus urticae (Two-Spotted Spider Mite): Bean leaf discs on agar in 24-well microtiter plates were sprayed with test solutions at an application rate of 200 ppm. After drying, the leaf discs are infested with mite populations of mixed ages. 8 days later, discs are checked for egg mortality, larval mortality, and adult mortality. The following compounds gave at least 80% control of Tetranychus urticae: A6, A11, A15, A19, A20, A22, A26, A35, A58, and A64.

[2] = tested on: Heliothis virescens (Tobacco Budworm); experiment: Heliothis virescens egg test on artificial diet; settings: same protocol, 200 ppm (18 ppm in well), 4 days
Protocol: as §1, §2

[3] = tested on: Plutella xylostella (Diamond Back Moth); experiment: Plutella xylostella larvae test on artificial diet; settings: same protocol, 200 ppm (18 ppm in well), 6 days
Protocol: as §1, §2

[4] = tested on: Diabrotica balteata (Corn Root Worm); experiment: Diabrotica balteata larvae test on artificial diet; settings: same protocol, 200 ppm (18 ppm in well), 5 days
Protocol: as §1, §2

[5] = tested on: Myzus persicae (Green Peach Aphid); experiment: Myzus persicae sucrose solution feeding test; settings: same protocol, 12.5 ppm, 6 days
Protocol: as §1, §2

[6] = tested on: Tetranychus urticae (Two-Spotted Spider Mite); experiment: Tetranychus urticae bean leaf disc spray test; settings: same protocol, 200 ppm, 8 days
Protocol: as §1, §2

Measured: effect on mortality, feeding behavior, or growth regulation

CCc1cc(C(F)(C(F)(F)F)C(F)(F)C(F)(F)F)cc(C)c1NC(=O)c1ccc(C(=O)Nc2cc(-c3ccccc3)[nH]n2)c(C)c1 (stereo not drawn) [A61]
no or little effect: all assays above

CCc1cc(C(F)(C(F)(F)F)C(F)(F)C(F)(F)F)cc(C)c1NC(=O)c1ccc(C(=O)Nc2nc3c(C)cccc3s2)c(C)c1 (stereo not drawn) [A62]
no or little effect: all assays above

CCc1cc(C(F)(C(F)(F)F)C(F)(F)C(F)(F)F)cc(C)c1NC(=O)c1ccc(C(=O)Nc2nnc(C)s2)c(C)c1 (stereo not drawn) [A63]
no or little effect: all assays above

CCc1cc(C(F)(C(F)(F)F)C(F)(F)C(F)(F)F)cc(C)c1NC(=O)c1ccc(C(=O)Nc2nc(-c3ccc(C)cc3)cs2)c(C)c1 (stereo not drawn) [A66]
no or little effect: all assays above

CCc1cc(C(F)(C(F)(F)F)C(F)(F)C(F)(F)F)cc(C)c1NC(=O)c1ccc(C(=O)NCCCN2CCCCC2)c(C)c1 (stereo not drawn) [A67]
no or little effect: all assays above

CCc1cc(C(F)(C(F)(F)F)C(F)(F)C(F)(F)F)cc(C)c1NC(=O)c1ccc(C(=O)NCc2cc(-c3ccc(Cl)cc3)no2)c(C)c1 (stereo not drawn) [A68]
no or little effect: all assays above

CCc1cc(C(F)(C(F)(F)F)C(F)(F)C(F)(F)F)cc(C)c1NC(=O)c1ccc(C(=O)NC2CC(C)(C)N(C)C(C)(C)C2)c(C)c1 (stereo not drawn) [A72]
no or little effect: all assays above

CCc1cc(C(F)(C(F)(F)F)C(F)(F)C(F)(F)F)cc(C)c1NC(=O)c1ccc(C(=O)NCc2ccc(C(C)(C)C)cc2)c(C)c1 (stereo not drawn) [A81]
no or little effect: all assays above

CCc1cc(C(F)(C(F)(F)F)C(F)(F)C(F)(F)F)cc(C)c1NC(=O)c1ccc(C(=O)NCc2ccc(Br)cc2F)c(C)c1 (stereo not drawn) [A83]
no or little effect: all assays above

CCc1cc(C(F)(C(F)(F)F)C(F)(F)C(F)(F)F)cc(C)c1NC(=O)c1ccc(C(=O)NCc2ccc(C)c(C)c2)c(C)c1 (stereo not drawn) [A91]
no or little effect: all assays above
